According to patent US9757393B2 (priority 2015, dated 2017):

Assays:
Type in all cases: in vivo, C57BL/6J mice
[1] = system: SREBP1c mRNA; test: Semiquantitative RT-PCR, liver tissue: SREBP1c; conditions: HFD-fed mice
Protocol: (§1) Experimental Animals: the experiments are conducted under the guidelines of the Institutional Animal Care and Use Committee of Central Taiwan University of Science and Technology. As previously described, four-week-old male C57BL/6J mice (n=63) is purchased from the National Laboratory Animal Breeding and Research Center, Ministry of Science and Technology. After 1-week of acclimatization, mice are designed to initiate the study, and the study lasts for 12 weeks. […] The CON group and high-fat control (HF) group are given with vehicle only. The low-fat diet consisted of fat 10%, whereas the high-fat diet (HFD) consisted of fat 45% (of total energy, % kcal). The compositions of the experimental diets are shown as described. At the end of the study, food is derived from the animals (from 10 p.m. to 10 a.m.). On the next day, the mice are sacrificed, and blood and tissue are collected for analysis. Livers, skeletal muscles, and white adipose tissues (WATs) (including epididymal, mesenteric and retroperitoneal WAT) are excised and weighed, and then immediately stored in a freezer at −80° C. Heparin (30 units/mL) (Sigma) is added to blood samples. Plasma samples are collected by centrifugation at 1600 g for 15 min at 4° C. within 30 min, and plasma is obtained for insulin and leptin level analysis.
(§2) The experiment is performed as in a previously described protocol. Total RNA from the liver tissue is isolated with a Trizol reagent (Molecular Research Center, Inc., Cincinnati, Ohio, USA) according to the manufacturer's directions. Total RNA (1 μg) is reverse transcribed to cDNA with 5 μL of Moloney murine leukemia virus reverse transcriptase (Epicenter, Madison, Wis., USA) as a previously described protocol. […] The relative density of the band is evaluated using AlphaDigiDoc 1201 software (Alpha Innotech Co., San Leandro, Calif., USA). All of the measured PCR products are normalized to the amount of cDNA of GAPDH in each sample.

[2] = system: adiponectin mRNA; test: Semiquantitative RT-PCR, liver tissue: adiponectin; conditions: HFD-fed mice, 40 mg/kg/day
Protocol: as §1, with “Heparin (30 units/mL) (Sigma) is added to blood samples. Plasma samples are collected by centrifugation at 1600 g for 15 min at 4° C. within 30 min, and plasma is obtained for insulin and leptin level analysis.” left out
The experiment is performed as in a previously described protocol. […] The relative density of the band is evaluated using AlphaDigiDoc 1201 software (Alpha Innotech Co., San Leandro, Calif., USA). All of the measured PCR products are normalized to the amount of cDNA of GAPDH in each sample.

[3] = system: phospho-AMPK (Thr172); test: Western blotting of phospho-AMPK (Thr172) in liver tissue and skeletal muscle; conditions: HFD-fed mice
Protocol: as §1
Protein extractions and immunoblots for the determination of membrane GLUT4, phospho-AMPK (Thr172), and phospho-Akt (Ser 473) proteins are carried out on frozen skeletal muscle and liver tissue from mice, which follows a previous paper. Additionally, membrane GLUT4 is carried out on frozen skeletal muscle from mice, and the total membrane fractions are collected with buffer and centrifuged as a previously described. The protein contents of membrane GLUT4, phospho-AMPK, phospho-Akt, total AMPK, and total Akt are detected by western blotting. Western blotting has been determined as described elsewhere. Subsequently, antibodies are detected using horseradish peroxidase linked to a goat anti-IgG rabbit secondary antibody and visualized using an ECL system. Membrane GLUT4, structural proteins GAPDH and β-actin are purchased from Santa Cruz Biotechnology (Santa Cruz, Calif., USA); phospho-AMPK was obtained from Abcam Inc. (Cambridge, Mass., USA); phospho-Akt, total AMPK, and total Akt are from Cell Signaling Technology, Inc. (Danver Mass., USA); the BCA protein assay kit is from Thermo Scientific (Rockford, Ill., USA); and the ECL reagent kit is from GE Healthcare BioSciences (Buckinghamshire, UK). The secondary antibody antirabbit is from Jackson ImmunoResearch Laboratories, Inc. (West Grove, Pa., USA). The density blotting is analyzed using Alpha Easy FC software (Alpha Innotech Corp., Randburg, South Africa). Structural proteins GAPDH and β-actin are obtained by stripping the nitrocellulose membrane proteins of liver and skeletal muscle, respectively.

[4] = system: G6 Pase mRNA; test: Semiquantitative RT-PCR, liver tissue: G6 Pase; conditions: HFD-fed mice
Protocol: as §1, §2

## CC(C)[C@@H](C)C=C[C@@H](C)[C@H]1CC[C@H]2C3=CCC4C[C@@H](O)CC[C@]4(C)C3=CC[C@]12C (stereo partly drawn) [ergostatrien-3β-ol, ergosta-7,9(11),22-trien-3β-ol]
[1]; 10 mg/kg/day
  mRNA level of SREBP1c: decreased
[1]; 20 mg/kg/day
  mRNA level of SREBP1c: decreased
[1]; 40 mg/kg/day
  mRNA level of SREBP1c: decreased
[2]
  mRNA level of adiponectin: increase
[3]; liver tissue, 10 mg/kg/day
  protein contents of phospho-AMPK: significantly increased
[3]; liver tissue, 20 mg/kg/day
  protein contents of phospho-AMPK: significantly increased
[3]; liver tissue, 40 mg/kg/day
  protein contents of phospho-AMPK: significantly increased
[3]; skeletal muscle, 10 mg/kg/day
  protein contents of phospho-AMPK: significantly increased
[3]; skeletal muscle, 20 mg/kg/day
  protein contents of phospho-AMPK: significantly increased
[3]; skeletal muscle, 40 mg/kg/day
  protein contents of phospho-AMPK: significantly increased
[4]; 10 mg/kg/day
  mRNA level of G6 Pase: decreased
[4]; 20 mg/kg/day
  mRNA level of G6 Pase: decreased
[4]; 40 mg/kg/day
  mRNA level of G6 Pase: decreased
